Experimental data from patent US10098350B2, “Fungicidal amides” (E. I. DU PONT DE NEMOURS AND COMPANY, priority 2013, dated 2018).

How the values were obtained:
Type in all cases: in vivo
Botrytis cinerea = experiment: Test A: tomato seedlings sprayed with test suspension, inoculated with Botrytis cinerea (gray mold), visual disease rating; details: Cmpd. No. unmarked; 100 = 100% disease control, 0 = no control relative to controls
Excerpt: (§1) General protocol for preparing test suspensions for Tests A-E: the test compounds were first dissolved in acetone in an amount equal to 3% of the final volume and then suspended at the desired concentration (in ppm) in acetone and purified water (50/50 mix by volume) containing 250 ppm of the surfactant Trem® 014 (polyhydric alcohol esters). The resulting test suspensions were then used in Tests A-E. Samples were applied to plants at either a 10 ppm (**), 40 ppm, 50 ppm (*) or 200 ppm (#) test solution to the point of run-off on the test plants with the equivalent of a rate of 40 g ai/ha, 160 g ai/ha, 200 g ai/ha, or 800 g ai/ha, respectively.
The test suspension was sprayed to the point of run-off on tomato seedlings. The following day the seedlings were inoculated with a spore suspension of Botrytis cinerea (the causal agent of gray mold on many crops) and incubated in a saturated atmosphere at 20° C. for 48 h, and moved to a growth chamber at 27° C. for 2 days, after which time visual disease ratings were made.
(§2) Results for Tests A-E are given in Table A. In the Table, a rating of 100 indicates 100% disease control and a rating of 0 indicates no disease control (relative to the controls). A dash (-) indicates no test results.

Septoria tritici = experiment: Test C: wheat seedlings sprayed with test suspension, inoculated with Septoria tritici (wheat leaf blotch), visual disease rating
Method in brief: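 Wheat seedlings sprayed to run-off with compound suspended in acetone/water with 250 ppm Trem 014, at 10, 40, 50 or 200 ppm (40–800 g ai/ha). Inoculated with Septoria tritici spores the next day, held 48 h saturated at 24 °C, then 21 days at 20 °C. Visual rating 0–100% disease control relative to controls.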

[1] = tested on: Puccinia recondite f. sp. tritici; experiment: Test D: wheat seedlings sprayed with test suspension, inoculated with Puccinia recondite f. sp. tritici (wheat leaf rust), visual disease rating
Method in brief: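 Wheat seedlings were sprayed to run-off with compound suspended in 50/50 acetone–water containing 250 ppm Trem 014, at 10-200 ppm (40-800 g ai/ha). They were inoculated with rust spores the next day, then kept 24 h saturated at 20 °C and 6 days at 20 °C. Scores are visual % disease control versus untreated controls.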

[2] = tested on: Stagonospora nodorum (also known as Septoria nodorum); experiment: Test B: wheat seedlings sprayed with test suspension, inoculated with Stagonospora nodorum (wheat glume blotch), visual disease rating
Excerpt: as §1
The test suspension was sprayed to the point of run-off on wheat seedlings. The following day the seedlings were inoculated with a spore suspension of Stagonospora nodorum (also known as Septoria nodorum; the causal agent of wheat glume blotch) and incubated in a saturated atmosphere at 20° C. for 48 h, and then moved to a growth chamber at 20° C. for 6 days, after which time visual disease ratings were made.
as §2

[3] = tested on: Erysiphe graminis f. sp. tritici; experiment: Test E: wheat seedlings sprayed with test suspension, inoculated with Erysiphe graminis f. sp. tritici (wheat powdery mildew), visual disease rating
Method in brief: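 Wheat seedlings sprayed to run-off with compound suspension (acetone 3%, acetone/water 50/50 with 250 ppm Trem 014) at 10, 40, 50 or 200 ppm (40–800 g ai/ha), inoculated next day with spore dust. Incubated 7 or 8 days at 20° C, then rated visually as % disease control relative to controls (0–100).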

[4] = Cmpd. No. unmarked, 100 = 100% disease control, 0 = no control relative to controls
[5] = Cmpd. No. marked '**' (other test rate; meaning of mark not shown)

| Compound | Test A rating (% disease control) (Botrytis cinerea) | Test C rating (% disease control) (Septoria tritici; [4]) | Test D rating (% disease control) [1, 4] | Test B rating (% disease control) [2, 4] | Test E rating (% disease control) [3, 4] | Test C rating (% disease control) (Septoria tritici; [5]) | Test D rating (% disease control) [1, 5] | Test B rating (% disease control) [2, 5] | Test E rating (% disease control) [3, 5] |
| --- | --- | --- | --- | --- | --- | --- | --- | --- | --- |
| Cc1ccc(-n2ccc(C(F)(F)F)n2)cc1CN(C(=O)c1cn(C)nc1C(F)F)C1CC1 [compound 28] | 11% | 45% | 45% | 99% | 59% | – | – | – | – |
| CC(c1ncc(-n2ccc(C(F)(F)F)n2)cc1Cl)N(C(=O)c1cn(C)nc1C(F)F)C1CC1 (stereo not drawn) [compound 17] | 0% | 99% | 23% | 100% | 92% | – | – | – | – |
| Cn1cc(C(=O)N(Cc2c(Cl)cc(-n3ccc(C(F)(F)F)n3)cc2Cl)C2CC2)c(C(F)F)n1 [compound 36] | 0% | – | 99% | 99% | 90% | – | – | – | – |
| Cn1cc(C(=O)N(Cc2cc(-n3ccc(C(F)(F)F)n3)ccc2C2CC2)C2CC2)c(C(F)F)n1 [compound 33] | 0% | – | 68% | 98% | 94% | – | – | – | – |
| Cn1nc(C(F)F)c(C(=O)N(Cc2ccc(-n3cc(Br)cn3)cc2Cl)C2CC2)c1F [compound 34] | 23% | 94% | 100% | 100% | 95% | – | – | – | – |
| Cn1nc(C(F)F)c(C(=O)N(Cc2ccc(-n3ccc(C(F)(F)F)n3)cc2C(F)(F)F)C2CC2)c1F [compound 37] | 0% | – | 97% | 100% | 99% | – | – | – | – |
| Cn1cc(C(=O)N(Cc2c(Cl)cc(-n3cccn3)cc2Cl)C2CC2)c(C(F)F)n1 [compound 24] | 0% | – | 99% | 100% | 90% | – | – | – | – |
| Cn1nc(C(F)F)c(C(=O)N(Cc2ccc(-n3ccc(C(F)(F)F)n3)cc2OC(F)(F)F)C2CC2)c1F [compound 23] | 0% | – | 99% | 98% | 98% | – | – | – | – |
| CC(c1cc(Cl)cc(-n2ccc(C(F)(F)F)n2)c1)N(C(=O)c1cn(C)nc1C(F)F)C1CC1 (stereo not drawn) [compound 22] | 0% | – | 55% | 90% | 81% | – | – | – | – |
| Cn1cc(C(=O)N(Cc2cc(-n3ccc(C(F)(F)F)n3)ccc2Br)C2CC2)c(C(F)F)n1 [compound 32] | 0% | – | 0% | 0% | 97% | – | – | – | – |
| Cc1ccc(C(C)N(C(=O)c2cn(C)nc2C(F)F)C2CC2)cc1-n1ccc(C(F)(F)F)n1 (stereo not drawn) [compound 26] | 0% | – | 0% | 99% | 81% | – | – | – | – |
| COc1cc(-n2ccc(C(F)(F)F)n2)ccc1CN(C(=O)c1c(C(F)F)nn(C)c1F)C1CC1 [compound 25] | 0% | – | 100% | 100% | 98% | – | – | – | – |
| Cn1cc(C(=O)N(Cc2cccc(-n3ccc(C(F)(F)F)n3)c2Cl)C2CC2)c(C(F)F)n1 [compound 38] | 14% | – | 41% | 0% | 69% | – | – | – | – |
| CC(c1cc(-n2ccc(C(F)(F)F)n2)cc(C(F)(F)F)c1)N(C(=O)c1c(C(F)F)nn(C)c1F)C1CC1 (stereo not drawn) [compound 56] | – | 97% | 86% | 100% | 92% | – | – | – | – |
| CC(c1ccc(C(F)(F)F)c(-n2ccc(C(F)(F)F)n2)c1)N(C(=O)c1cn(C)nc1C(F)F)C1CC1 (stereo not drawn) [compound 21] | 0% | – | 0% | 0% | 64% | – | – | – | – |
| Cn1nc(C(F)F)c(C(=O)N(Cc2c(Cl)cc(-n3ccc(C(F)(F)F)n3)cc2Cl)C2CC2)c1F [compound 127] | – | 99% | 100% | 100% | 98% | – | – | – | – |
| Cc1cnn(-c2ccc(CN(C(=O)c3c(C(F)F)nn(C)c3F)C3CC3)c(Cl)c2)c1 [compound 144] | – | 99% | 97% | 100% | 99% | – | – | – | – |
| CC(c1cc(-n2ccc(C(F)(F)F)n2)ccc1Br)N(C(=O)c1c(C(F)F)nn(C)c1F)C1CC1 (stereo not drawn) [compound 53] | – | 97% | 74% | 100% | 96% | – | – | – | – |
| Cn1nc(C(F)F)c(C(=O)N(Cc2ccc(-n3ccc(C(F)(F)F)n3)cc2Br)C2CC2)c1F [compound 106] | – | 96% | 99% | 100% | 97% | – | – | – | – |
| Cn1nc(C(F)F)c(C(=O)N(Cc2ccc(-n3cnc(Cl)n3)cc2Cl)C2CC2)c1F [compound 146] | – | 94% | 0% | 0% | 0% | – | – | – | – |
| Cn1cc(C(=O)N(Cc2ccnc(-n3ccc(C(F)(F)F)n3)c2Cl)C2CC2)c(C(F)F)n1 [compound 100] | – | – | – | – | – | 6% | 0% | 0% | 0% |
| Cc1ncn(-c2ccc(CN(C(=O)c3c(C(F)F)nn(C)c3F)C3CC3)c(Cl)c2)n1 [compound 65] | – | 98% | 0% | 87% | 0% | – | – | – | – |
| Cn1cc(C(=O)N(Cc2ccc(-n3cccn3)cc2Cl)C2CC2)c(C(F)F)n1 [compound 48] | – | 98% | 0% | 100% | 73% | – | – | – | – |
| Cn1nc(C(F)F)c(C(=O)N(Cc2cnc(-n3ccc(C(F)(F)F)n3)c(Cl)c2)C2CC2)c1F [compound 43] | – | 6% | 0% | 0% | 0% | – | – | – | – |
